Experimental data published in patent US20250302799A1, “PHARMACEUTICAL COMPOSITION CONTAINING FRAXETIN FOR PREVENTION OR TREATMENT OF ENDOMETRIOSIS” (Research & Business Foundation Sungkyunkwan University, priority 2024, published 2025).

Experiments:
Type in all cases: cell-based, human
[1] = system: End1/E6E7 cells; experiment: ROS generation by DCFH-DA flow cytometry
Procedure: (§1) To assess the inhibitory effect of fraxetin on ROS generation in endometrial cells, the inventors used flow cytometry to measure ROS levels. In brief, endometriosis cells were stained with DCFH-DA (final concentration 10 μM) for 30 minutes and treated with 50 μM fraxetin in experimental groups, with or without 2 mM N-acetylcysteine (NAC; Cat No. A0737, Sigma), in a 37° C. incubator. Afterward, the cells were washed with PBS, and ROS levels were detected by measuring fluorescence DCF via flow cytometry.

[2] = system: VK2/E6E7 cells; experiment: ROS generation by DCFH-DA flow cytometry
Procedure: as §1

[3] = system: End1/E6E7 cells; experiment: Western blot analysis of protein expression and phosphorylation
Procedure: To analyze protein expression related to the development of endometriosis following fraxetin treatment, the inventors conducted western blot analysis.
Briefly, endometrial cells were treated with fraxetin in a dose-dependent manner or in combination with signaling pathway inhibitors. Total proteins were extracted from the treated cells, and protein quantification was performed using the Bradford protein assay (Bio-Rad, Hercules, CA, USA). The extracted proteins were then denatured at 95° C. for 5 minutes and subjected to electrophoresis on a 10% SDS/PAGE gel before being transferred to a nitrocellulose membrane. The membrane was subsequently incubated with primary and secondary antibodies, and target protein expression was analyzed using chemiluminescence detection reagents (Supersignal West Pico, Pierce, Rockford, IL, USA) with the ChemiDoc EQ system and Quantity One software (Bio-Rad).

[4] = system: End1/E6E7 cells; experiment: Cell viability with signaling pathway inhibitors alone or combined with fraxetin; settings: wortmannin 1 μM, U0126 20 μM
Procedure: (§2) The AKT inhibitor wortmannin (1 μM), ERK1/2 inhibitor U0126 (20 μM), and JNK inhibitor SP600125 (20 μM) were used.

[5] = system: VK2/E6E7 cells; experiment: as above; settings: wortmannin 1 μM, U0126 20 μM
Procedure: as §2

[6] = system: End1/E6E7 cells; experiment: BrdU cell proliferation assay; settings: End1/E6E7, 48 hours
Procedure: (§3) To examine the effects of fraxetin on cell proliferation, the inventors performed a BrdU cell proliferation assay.
(§4) First, 5×10^3 cells of VK2/E6E7, End1/E6E7, and T-HESC were each distributed in 100 μL of medium in 96-well plates.
(§5) Fraxetin was then administered in a dose-dependent manner (0μM, 5 μM, 10 μM, 20 uM, 50 μM, 100 uM) and cultured for 48 hours, followed by the BrdU assay using a BrdU kit (Cat No: 1167229001, Roche) according to the manufacturer's instructions.
(§6) After 48 hours of incubation, 10 μM BrdU (Bromodeoxyuridine) was added to each well and incubated at 37° C. in a 5% CO2 incubator for 2 hours. The cells were then fixed, reacted with anti-BrdU-POD solution at room temperature for 90 minutes, and washed three times. Finally, 100 μL of 3, 3′, 5, 5′-tetramethylbenzidine substrate was added, and absorbance was measured at wavelengths of 370 nm and 492 nm to analyze cell proliferation.

[7] = system: VK2/E6E7 cells; experiment: BrdU cell proliferation assay; settings: VK2/E6E7, 48 hours
Procedure: as §3, §4, §5, §6

[8] = system: End1/E6E7 cells; experiment: Mitochondrial membrane potential by JC-1 staining; settings: End1/E6E7, with tiRNA^HisGTG inhibitor
Procedure: To examine changes in mitochondrial membrane potential (MMP) in endometrial cells induced by fraxetin, the inventors used a mitochondria staining kit (Cat no: CS0390, Sigma-Aldrich) to measure MMP.
In brief, End1/E6E7 and […] endometrial cell lines were cultured in 6-well plates, treated with fraxetin in a dose-dependent manner (0 μM, 5 μM, 10 μM, 20 μM, 50 μM, 100 μM), and incubated at 37° C. in a 5% CO2 incubator for 48 hours. Afterward, the cells were detached using trypsin, centrifuged to obtain cell pellets, resuspended in JC-1 staining solution, and incubated at 37° C. in a 5% CO2 incubator for 20 minutes. The stained cells were centrifuged again, washed with 1X JC-1 staining buffer, and analyzed using flow cytometry to assess changes in mitochondrial membrane potential.

[9] = system: VK2/E6E7 cells; experiment: Mitochondrial membrane potential by JC-1 staining; settings: VK2/E6E7, with tiRNA^HisGTG inhibitor
[10] = system: End1/E6E7 cells; experiment: Apoptosis by Annexin V and propidium iodide staining; settings: End1/E6E7, with tiRNA^HisGTG inhibitor
Procedure: (§7) To assess the apoptosis-inducing effect of fraxetin in endometrial cells, the inventors used a FITC Annexin V Apoptosis Detection Kit I (BD Sciences).
(§8) First, VK2/E6E7 and End1/E6E7 cells were cultured in 6-well plates, treated with fraxetin in a dose-dependent manner (0 μM, […], 10 μM, 20 µM, 50 μM, 100 μM), and incubated for 48 hours at 37° C. in a 5% CO2 incubator. The cells were then detached using trypsin, washed with PBS, and mixed slowly with 1 mL of 1X binding buffer. After centrifugation, the cell pellet was resuspended in 200 μL of 1X binding buffer. The suspension (100 μL) was transferred to a 1.5 mL brown tube, and 5 μL of Annexin V and PI (propidium iodide) were added, followed by staining at room temperature for 15 minutes. After adding 400 μL of 1X binding buffer, the stained solution was transferred to a 5 mL FACS tube, and the number of apoptotic cells was measured by analyzing fluorescence intensity using flow cytometry.

[11] = system: VK2/E6E7 cells; experiment: as above; settings: VK2/E6E7, with tiRNA^HisGTG inhibitor
Procedure: as §7, §8

[12] = system: End1/E6E7 cells; experiment: tiRNA expression by real-time PCR; settings: End1/E6E7, inhibitor 40 nM transfected
Procedure: (§9) To confirm the expression of tiRNA (tRNA-derived stress-induced RNAs) associated with the development of endometriosis, the inventors conducted real-time PCR.
(§10) First, information on candidate tiRNA sequences and mature tRNA sources was obtained from MINTbase (https://cm.jefferson.edu/MINTbase/). miRNA CDNA synthesis was performed using a cDNA kit (Agilent Technologies) to confirm tiRNA expression, with U6 snRNA used for normalization. For transfection of the tiRNA^His GTG inhibitor (5′-AACCGAGAGUACUAACCACUAUACGAUCACCGC-3′) (40 nM), Lipofectamine 2000 was used in Opti-MEM.

[13] = system: VK2/E6E7 cells; experiment: tiRNA expression by real-time PCR; settings: VK2/E6E7, inhibitor 40 nM transfected
Procedure: as §9, §10

CC(=O)N[C@@H](CS)C(=O)O [NAC, N-acetylcysteine, reference compound]
fraxetin-induced increase of ROS generation under co-treatment ([1]; End1/E6E7, 2 mM NAC): mitigated
fraxetin-induced increase of ROS generation under co-treatment ([2]; VK2/E6E7, 2 mM NAC): mitigated

N#CC(=C(/N)Sc1ccccc1N)/C(C#N)=C(\N)Sc1ccccc1N [U0126]
S6 phosphorylation, combined with fraxetin compared to fraxetin alone ([3]; End1/E6E7, inhibitor 20 μM): further downregulated
cell viability, combined treatment with fraxetin compared to inhibitor alone [4]: marked decrease
cell viability, combined treatment with fraxetin compared to inhibitor alone [5]: marked decrease

C[C@]12CCC3=C4CCC(=O)C=C4CC[C@H]3[C@@H]1CC[C@@]2(O)CC#N [dienogest, reference compound]
relative ROS generation ([1]; End1/E6E7, Example 7 comparison fraxetin vs dienogest): did not show significant changes
relative ROS generation ([2]; VK2/E6E7, Example 7 comparison fraxetin vs dienogest): did not show significant changes

COC[C@H]1OC(=O)c2coc3c2[C@@]1(C)C1=C(C3=O)[C@@H]2CCC(=O)[C@@]2(C)C[C@H]1OC(C)=O [wortmannin, reference compound]
JNK phosphorylation ([3]; End1/E6E7, wortmannin 1 μM): no significant effect

tiRNA^HisGTG inhibitor: tiRNA^His GTG inhibitor (5′-AACCGAGAGUACUAACCACUAUACGAUCACCGC-3′), 40 nM, transfected with Lipofectamine 2000 (AACCGAGAGUACUAACCACUAUACGAUCACCGC; chemistry not given here) [reference compound]
cell proliferation, sequential treatment with fraxetin [6]: decreased
cell proliferation, sequential treatment with fraxetin [7]: decreased
fraxetin-induced MMP loss [8]: significantly mitigated
fraxetin-induced MMP loss [9]: significantly mitigated
fraxetin-induced apoptosis [10]: inhibited
fraxetin-induced apoptosis [11]: inhibited
tiRNA^HisGTG mRNA expression [12]: decreased
tiRNA^HisGTG mRNA expression [13]: decreased
